{
  "source": "patent US12453733B2",
  "about": "“Composition for prevention or treatment of intractable epilepsy comprising mTOR inhibitor” (SoVarGen Co., Ltd., priority 2015, dated 2025)",
  "type_in_all_cases": "cell-based, human",
  "key": {"[1]": {"tested_on": "TSC2 mutant-expressing HEK293T cells", "assay": "Western blot of S6K phosphorylation in TSC2 mutant-expressing HEK293T cells after drug treatment", "conditions": "Example 11; FIGS. 25a and 25b", "protocol": "(§1) Briefly, HEK293T cells (Thermo Scientific) were cultured in DMEM (Dulbecco's Modified Eagle's Medium) supplemented with 10% FBS at 37° C. and 5% CO2. The cells were transfected with empty flag-tagged vector, HA-tagged TSC1 wild-type, HA-tagged TSC2 wild-type, HA-tagged AKT3 wild-type, HA-tagged TSC1 mutant, HA-tagged TSC2 mutant and HA-tagged AKT3 mutant, respectively, using jetPRIME transfection reagent (Polyplus, France).\n(§2) The cells were serum-starved with 0.1% FBS in DMEM for 24 hours after transfection and then incubated at 37° C. and 5% CO2 in PBS containing 1 mM MgCl2 and CaCl2 for 1 hour. The cells were lysed with PBS containing 1% Triton X-100 and Halt protease and phosphatase inhibitor cocktail (78440, Thermo Scientific, USA). Proteins were resolved by SDS-PAGE and transferred to PVDF membranes (Millipore, USA). The membranes were blocked with 3% BSA in TBS containing 0.1% Tween 20 (TBST). They were washed 4 times with TBST. The membranes were incubated overnight with primary antibodies including a 1/1000 dilution of anti-phospho-S6 ribosomal protein (5364, Cell Signaling Technology, USA), anti-56 ribosomal protein (2217, Cell Signaling Technology, USA), and anti-flag M2 (8164, Cell Signaling Technology, USA) in TBST at 4° C., respectively. After incubation, the membranes were washed 4 times with TBST. […]"}, "[2]": {"tested_on": "mutant mTOR-expressing HEK293T cells", "assay": "Western blot of S6/S6K phosphorylation in mutant mTOR-expressing HEK293T cells after drug treatment", "conditions": "for phosphorylation of S6K in all the mutant mTOR-expressing cells: Y1450D, C1483R, R1709H, Y1977K, S2215F, L2427P, L2427Q", "protocol": "HEK293T cells (Thermo Scientific) was cultured in DMEM (Dulbecco's Modified Eagle's Medium) containing 10% FBS at 37° C. and 5% CO2. The cells were transfected with empty flag-tagged vector, flag-tagged mTOR wild type, and flag-tagged mTOR mutants using jetPRIME transfection reagent (Polyplus, France). The cells were serum-starved with DMEM containing 0.1% FBS for 24 hours after transfection and then incubated at 37° C. and 5% CO2 in PBS containing 1 mM MgCl2 and CaCl2 for 1 hour. The cells were lysed with PBS containing 1% Triton X-100 and Halt protease and phosphatase inhibitor cocktail (78440, Thermo Scientific, USA).\nProteins were resolved by SDS-PAGE and transferred to PVDF membranes (Millipore, USA). The membranes were blocked with 3% BSA in TBS containing 0.1% Tween 20 (TBST). They were washed 4 times with TBST. The membranes were each incubated overnight at 4° C. with primary antibodies including a 1/1000 dilution of anti-phospho-S6 ribosomal protein (5364, Cell Signaling Technology, USA), anti-56 ribosomal protein (2217, Cell Signaling Technology, USA), and anti-flag M2 (8164, Cell Signaling Technology, USA) in TBST. After incubation, the membranes were washed 4 times with TBST. They were incubated with a 1/5000 dilution of HRP-linked anti-rabbit or anti-mouse secondary antibodies (7074, Cell Signaling Technology, USA) for 2 hours at room temperature. After washing with TBST, immunodetection was performed using ECL reaction reagents.\nTransfection of mTOR mutants into HEK293T cells was carried out in the same manner as in Example 3-2. Then, the cells were serum-starved with DMEM containing 0.1% FBS for 24 hours and incubated at 37° C. and 5% CO2 in PBS containing 1 mM MgCl2 and CaCl2 for 1 hour, followed by treatment with rapamycin, everolimus, or compounds of Chemical Formulas 1 to 4 (Torinl, INK128, AZD8055, GSK2126458); Torin was purchased from TOCRIS, INK128, AZD8055, and GSK2126458 were provided from Selleckchem, and everolimus was purchased from LC laboratory. Subsequently, Western blotting was performed in the same manner as in Example 9.\nCells expressing various mTOR mutations were treated in the same manner as in Example 3-2 with rapamycin, everolimus, or the compounds of Chemical Formulas 1 to 4 and monitored for S6K phosphorylation. The mTOR mutations were R624H, Y1450D, C1483R, R1709H, Y1977K, S2215F, L2427P, and L2427Q. […]\nCells expressing various mTOR mutations were treated in the same manner as in Example 9-1 with rapamycin, everolimus, or the compounds of Chemical Formulas 1 to 4, and monitored for S6K phosphorylation. […]"}, "[3]": {"tested_on": "TSC1 mutant-expressing HEK293T cells", "assay": "Western blot of S6K phosphorylation in TSC1 mutant-expressing HEK293T cells after drug treatment", "conditions": "Example 11; FIGS. 24a and 24b", "protocol": "as §1, §2"}},
  "note": "“Also recorded” adds a separate entry of the source.",
  "data": [
    {"smiles": "CO[C@H]1C[C@@H]2CC[C@@H](C)[C@@](O)(O2)C(=O)C(=O)N2CCCC[C@H]2C(=O)O[C@H]([C@H](C)C[C@@H]2CC[C@@H](OCCO)[C@H](OC)C2)CC(=O)[C@H](C)/C=C(\\C)[C@@H](O)[C@@H](OC)C(=O)[C@H](C)C[C@H](C)/C=C/C=C/C=C/1C", "note": "[everolimus]", "values": [
      {"measurement": "S6K phosphorylation in TSC2 mutant-expressing cells", "setting": "[1]", "result": "inhibit"},
      {"measurement": "phosphorylation of S6K in mutant mTOR-expressing cells", "setting": "[2]; Example 3-4, HEK293T, Western blot, FIGS. 9a to 9c", "result": "inhibited; also recorded: reduce"},
      {"measurement": "phosphorylation of S6K in all the mutant mTOR-expressing cells", "setting": "[2]; Example 3-5, mutations R624H, FIGS. 13 and 14", "result": "inhibited"},
      {"measurement": "phosphorylation of S6 in mutant mTOR-expressing cells", "setting": "[2]; Example 10-1, FIG. 22, mTOR L2427P-expressing cells", "result": "inhibited"},
      {"measurement": "phosphorylation of S6K in all the mutant mTOR-expressing cells", "setting": "[2]; Example 10-2, variants R624H, FIGS. 23a and 23b", "result": "inhibited"},
      {"measurement": "S6K phosphorylation in TSC1 mutant-expressing cells", "setting": "[3]", "result": "inhibit"}
    ]}
  ]
}
